The nature of data set [1]: "Electrically-provoked combat" test (anxiolytic action). In kind it is in vivo, mouse. Particulars: for protection against anxiety: same experimental conditions. The source says: Under certain conditions, a pair of mice reacts to an electric stimulus by a series of combats which are provoked by the anxiety felt by the animals as a result of the electric shock. This anxiety is expressed by a combat with the other animal which is rendered responsible. For this reason, the test described hereunder can be considered as a means of evaluating the anxiolytic action of a compound. Two mice which have been previously on a diet consisting only of water are placed together in a cage. They are then submitted to a series of electric impulses of an intensity varying between 40 and 80 volts according to the sensitivity of the animals. The test is first carried out with untreated animals as controls and then with the same animals treated 30 minutes before the test with a dose of the compound to be studied.
Note is taken on the number of combats engaged. The results are expressed in percentage of decrease in the number of combats engaged by the treated animals in comparison with the number of combats registered before treatment.

Data set [2] in a line: rota rod test (neurotoxicity). Particulars: for % of failures in rota rod test: mice, 30 min after administration; for Rota rod (% of failures): comparison at 25%-protection dose of four plates test. In kind it is in vivo, mouse. How it is done:
The test used was that known as the rota rod test described by BOISSIER (Therapie 1958 XIII pp. 1074-1118).
This test aims at determining the ability of mice to coordinate their movements by seeing to what extent they can remain on a roller turning at a rate of 4 revolutions per minute for two minutes. The trial was carried out thirty minutes after administration by oral route of the compound to be studied and the percentage of failures was noted.
The value of this test is twofold. Failure on the part of the animals gives a very early indication of the slightest damage to the meuromuscular functions which cannot be discerned by any other means. Secondly, this test serves as an element of comparison for drawing up index figures involving the results obtained with other tests.

Data set [3] in a line: Action on the pentylenetetrazole-induced seizure (anticonvulsant activity). In kind it is in vivo, mouse. As to the method: The purpose of this test which is carried out on mice is to determine whether the compounds of the invention, when given preventively by oral route, are capable at certain doses of protecting some of the animals against the epileptic seizure produced by a predetermined dose of pentylenetetrazole which would be 100% fatal in the absence of the compound.
The compound to be studied was administered fifteen minutes before an injection of 125 mg/kg of pentylenetetrazole and note was taken of the number of deaths occurring during the three hours following this injection. The results were expressed in percentage of protection of the animals against death at the dose studied.

Data set [4] is described as follows: Four plates test (anxiolytic action). In kind it is in vivo, mouse. Particulars: for ED25: po, read-out: ED25 in the four plates test (dose which offers 25%-protection against anxiety); for positive result in four plates test without sedative effect: at ED25 of four plates test. The text has this: This test, which is specific to the anxiolytics, was undertaken with the mouse, thirty minutes after the oral administration of the compound to be studied.
It consists in placing mice in a box with fairly high walls, of which the bottom comprises four square plates. These plates, which all have the same dimensions, are separated from each other by a central axis and are alternately electrified by the positive and negative poles of a source of electric current. There is a space of a few millimeters between adjacent plates.
The mouse placed in this apparatus explores it and thus passes over the different plates in succession. Note is taken of the number of times each animal passes over the plates during one minute. When the current is switched on, the mouse passing over the plates receives an electric shock (80 V), which provokes a gradual decrease in the exploratory movements, and finally brings the animals to a complete stop.
Anxiolytic agents enable the animals to become more or less indifferent to the electric shock.
The percentage of protection against anxiety given by compounds of the invention was calculated by comparing the number of times the control animals passed over the plates when electrified with the number of times the treated animals passed over the electrified plates.

Data set [5] in a line: spontaneous motoricity in the mouse. In kind it is in vivo. Particulars: for Spontaneous motoricity (% of decrease): comparison at 25%-protection dose of four plates test. The source says:
This test is described in U.S. Pat. No. 3,929,869.

A short description of data set [6]: Aggressivity of the isolated mouse (antiaggressive activity). It counts as in vivo. The source says: If a male mouse is isolated in a cage for three to four weeks, it will spontaneously attack any other animal of the same species which is placed in the same cage.
Mice wer isolated for the period of time required to render them spontaneously aggressive. Two mice, one rendered aggressive and one in a normal non-aggressive state, were then placed together and note was taken of the number of attacks by the aggressive mouse which occurred over a period of three minutes.
Each batch was composed of five pairs of animals.
The aggressive animals of each batch were then treated by oral route with the compound to be studied which was administered in such a way that the aggressive animals of each batch received a higher dose than those of the preceding batch.
Thirty minutes after administration, the couples were placed together again for a further three minutes and the number of attacks noted.

Where [7] appears, read: Mus musculus, po, 3 h, read-out: % of protection against death.
[8] abbreviates: Mus musculus, 0.5 h, mice, 30 min before test, read-out: % of decrease in number of combats.
The mark [9] stands for this setting: at the dose which provokes a 60%-decrease in the number of combats.

Each structure is given as a SMILES string.

These results are taken from patent US4223041A, “Urea derivatives to treat anxiety and aggressivity” (Labaz, priority 1976, dated 1980).

Turning to `CCC#CC(CCC)(CCC)NC(N)=O` [Compound B, 1-(1,1-Di-n-propyl-2-pentynyl)-urea], in data set [1] (Mus musculus, 0.5 h, 56.5 mg/kg, mice, 30 min before test, read-out: % of decrease in number of combats), the inhibition in vivo at 56.5 mg/kg was 52%.
As for `CC#CC(CCC)(CCC)NC(N)=O` [Compound D, 1-(1,1-Di-n-propyl-2-butynyl)-urea], the “% of failures in rota rod test” value in data set [2] (250 mg/kg oral) is 50%. For the same compound, the responders at 80.5 mg/kg in data set [3] (setting [7]) is 50%. In addition, the “anticonvulsant activity (in words)” value in data set [3] (pentylenetetrazole-induced seizure, mice, oral) was “considerable”. In addition, in data set [1] (Mus musculus, 0.5 h, 74 mg/kg, mice, 30 min before test, read-out: % of decrease in number of combats), the inhibition in vivo at 74 mg/kg stood at 50%.
On to `CCC(CC)(CC)NC(N)=O` [Compound F, 1-(1,1-Diethyl-n-propyl)-urea], for which the inhibition in vivo at 175 mg/kg in data set [4] (0.5 h, 175 mg/kg oral, mouse, 30 min after administration, read-out: % of protection against anxiety) was 16%. Moreover, the responders at 150 mg/kg in data set [3] (setting [7]) came to 50%. In addition, the inhibition in vivo at 82 mg/kg in data set [1] (Mus musculus, 0.5 h, 82 mg/kg, mice, 30 min before test, read-out: % of decrease in number of combats) was found to be 50%.
As to `CCCCC(C)(CC)NC(N)=O` (stereo not drawn) [Compound G, 1-(1-Methyl-1-ethyl-pentyl)-urea], in data set [4] (0.5 h, 282 mg/kg oral, mouse, 30 min after administration, read-out: % of protection against anxiety), the inhibition in vivo at 282 mg/kg was 18%. Further, the responders at 188 mg/kg in data set [3] (setting [7]) was 20%. Further, the inhibition in vivo at 94 mg/kg in data set [1] (Mus musculus, 0.5 h, 94 mg/kg, mice, 30 min before test, read-out: % of decrease in number of combats) was found to be 48%.
Turning to `CCCC(CCC)(NC(N)=O)C(C)C` [Compound H, 1-(1-n-Propyl-1-isopropyl-n-butyl)-urea], the inhibition in vivo at 250 mg/kg in data set [4] (0.5 h, 250 mg/kg oral, mouse, 30 min after administration, read-out: % of protection against anxiety) was 39%. Besides, in data set [1] (Mus musculus, 0.5 h, 110 mg/kg, mice, 30 min before test, read-out: % of decrease in number of combats), the inhibition in vivo at 110 mg/kg is 50%.
Regarding `CCCC(CCC)(CCC)NC(=O)N(C)C` [Compound I, 1-(1,1-Di-n-propyl-n-butyl)-3,3-dimethyl-urea], in data set [4] (0.5 h, 350 mg/kg oral, mouse, 30 min after administration, read-out: % of protection against anxiety), the inhibition in vivo at 350 mg/kg is 29%. Moreover, in data set [1] (setting [8]), the inhibition in vivo at 200 mg/kg amounted to 55%.
`CCCCC(CCCC)(CCCC)NC(N)=O` [Compound J, 1-(1,1-Di-n-butyl-n-pentyl)-urea]: the “% of failures in rota rod test” value in data set [2] (500 mg/kg oral) worked out at 0%. The inhibition in vivo at 200 mg/kg in data set [1] (setting [8]) was determined as 67%.
On to `CCCC(CCC)(CCC)NC(=O)NC` [Compound K, 1-(1,1-Di-n-propyl-n-butyl)-3-methyl-urea], for which the inhibition in vivo at 300 mg/kg in data set [4] (0.5 h, 300 mg/kg oral, mouse, 30 min after administration, read-out: % of protection against anxiety) turned out to be 25%. Moreover, the ED25 in data set [4] (0.5 h, mouse) worked out at 300 mg/kg. Moreover, the “failures in the rota rod test” value in data set [2] (300 mg/kg oral, mouse (ED25 in four plates test)) is “no failures”. Also, the “% of failures in rota rod test” value in data set [2] (600 mg/kg oral) was found to be 0%. Besides, the “sedative effect relative to reference products” value in data set [2] (at ED25 of four plates test) was “much less sedative than diazepam and meprobamate”. Further, in data set [3] (Mus musculus, 3 h, 200 mg/kg oral, mice, 15 min before 125 mg/kg pentylenetetrazole, read-out: % of protection against death), the responders at 200 mg/kg is 30%. Further, in data set [1] (setting [8]), the inhibition in vivo at 200 mg/kg was determined as 42%.
Turning to `C=CCC(CCC)(CCC)NC(=O)NC` [Compound L, 1-(1,1-Di-n-propyl-3-butenyl)-3-methyl-urea], the inhibition in vivo at 228 mg/kg in data set [1] (Mus musculus, 0.5 h, 228 mg/kg, mice, 30 min before test, read-out: % of decrease in number of combats) is 53%.
Consider `C#CCNC(=O)NC(CCC)(CCC)CCC` [Compound M, 1-(1,1-Di-n-propyl-n-butyl)-3-(2-propynyl)-urea], for which, in data set [2] (635 mg/kg oral), the “% of failures in rota rod test” value is 0%. The inhibition in vivo at 254 mg/kg in data set [1] (Mus musculus, 0.5 h, 254 mg/kg, mice, 30 min before test, read-out: % of decrease in number of combats) turned out to be 56%.
Turning to `C=CCNC(=O)NC(CCC)(CCC)CCC` [Compound N, 1-(1,1-Di-n-propyl-n-butyl)-3-(2-propenyl)-urea], the “% of failures in rota rod test” value in data set [2] (720 mg/kg oral) was found to be 0%. For the same compound, the responders at 240 mg/kg in data set [3] (Mus musculus, 3 h, 240 mg/kg oral, mice, 15 min before 125 mg/kg pentylenetetrazole, read-out: % of protection against death) turned out to be 20%. The inhibition in vivo at 360 mg/kg in data set [1] (Mus musculus, 0.5 h, 360 mg/kg, mice, 30 min before test, read-out: % of decrease in number of combats) was 30%.
`CCCC(CCC)(CC(C)C)NC(N)=O` [Compound P, 1-(1,1-Di-n-propyl-3-methyl-n-butyl)-urea]: the “% of failures in rota rod test” value in data set [2] (690 mg/kg oral) was 0%. The inhibition in vivo at 460 mg/kg in data set [1] (Mus musculus, 0.5 h, 460 mg/kg, mice, 30 min before test, read-out: % of decrease in number of combats) turned out to be 31%.
For `CN1C(=O)CN=C(c2ccccc2)c2cc(Cl)ccc21` [diazepam, reference compound], the “Spontaneous motoricity (% of decrease)” value in data set [5] (2 mg/kg) turned out to be 57%. Moreover, in data set [5] (dose producing 80% decrease in the number of combats), the “decrease in spontaneous motoricity at dose giving 80% reduction in combats” value is listed as 40%. The “positive result in four plates test without sedative effect” value in data set [4] is listed as “impossible”. Further, in data set [4] (0.5 h, mouse), the ED25 was determined as 2 mg/kg. Moreover, the “ED50 in the four plates test” value in data set [4] (sedative effects too intense above 2 mg/kg) is given as “not possible to obtain a ED50”. The sedative effects result in data set [6] (8 mg/kg) is “strongly sedative”. The “reduction in the number of attacks” value in data set [6] (8 mg/kg (strongly sedative), isolated mouse) was determined as 38%. For the same compound, the “activity in the isolated mouse test” value in data set [6] (doses active in four plates and electrically-provoked combat tests) is given as “devoid of activity”. For the same compound, the antiaggressive effect result in data set [6] (up to 4 mg/kg, isolated mouse) is listed as “no results”. Besides, the “failures in the rota rod test” value in data set [2] (setting [9]) is recorded as 12%. Also, the “Rota rod (% of failures)” value in data set [2] (2 mg/kg) is 35%. In data set [1] (0.69 mg/kg), the protection against anxiety is reported as 50%. Besides, the “decrease in number of combats obtainable without altering spontaneous motoricity” value in data set [1] (mice, without action on spontaneous motoricity) is given as not above 15%.
With `CCCC(C)(COC(N)=O)COC(N)=O` [meprobamate, reference compound], the “Spontaneous motoricity (% of decrease)” value in data set [5] (79 mg/kg) was 11%. The “positive result in four plates test without sedative effect” value in data set [4] was “impossible”. Besides, the ED25 in data set [4] (0.5 h, mouse) came out at 79 mg/kg. Moreover, the “sedative effects at antiaggressive dose” value in data set [6] (170 mg/kg) is listed as “considerable”. Further, in data set [6] (0.5 h, oral, isolated mouse, 30 min after administration, read-out: ED50 (50% fewer attacks)), the ED50 was 170 mg/kg. The “rota rod test effect” value in data set [2] (170 mg/kg (ED50 in isolated mouse test)) came to 75%. In addition, in data set [2] (setting [9]), the “failures in the rota rod test” value was 35%. The “Rota rod (% of failures)” value in data set [2] (79 mg/kg) is given as 30%. In data set [1] (70 mg/kg), this compound gave a protection against anxiety of 50%.
